# System: Irritable Bowel Syndrome symptoms (pain associated with intestinal gas, bloating and constipation)
# Experiment: Case report: patient suffering from IBS taking MCT orally
# Type: in vivo, human
# Description: Over a period of 8 weeks, the patient increased the dose of MCT to approx. 15 mL (in approx. 240 mL of soymilk) per day to achieve complete symptomatic relief from IBS.
substance,measurement,setting,value
Caprylic triglyceride [Neobee 895],"change in HDL, LDL and triglyceride levels",after 10 months of use of MCT,no noticeable change
same,adverse effects on continued use,"continued use, approx. 1 year",without any adverse effects
same,continued relief from IBS symptoms,"continued use, approx. 1 year",complete relief from the IBS symptoms
same,improvement of IBS symptoms,"initially, one teaspoon (approx. 5 mL) MCT as emulsion in soymilk (approx. 240 mL) per day, one patient",some improvement
same,relief of IBS symptoms,"one tablespoon (approx. 15 mL) MCT per day, oral, in approx. 240 mL soymilk, dose increased over 8 weeks, one patient",complete relief of the symptoms

# Source: patent US20050070603A1, “Use of glycerides to alleviate symptoms of digestive disorders” (priority 2003, published 2005)
